System: HOP-62 multicell spheroids with HUVEC/MSC, viability
Test: Anticancer human tumor HOP-62 cell line growth inhibition [KRAS2];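 also: viability read after a week of compound exposure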;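 as to viability, T/C: 100% = DMSO vehicle-treated spheroids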
Conditions: for viability, T/C: stronger effect = lower value; active = viability on the fitted dose curve at most 10% of control; inactive = the rest
Summary of the method: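 Combination screen of spheroid viability in tumor-cell co-cultures with endothelial (HUVEC) and mesenchymal stem cell stroma. Each agent was tested in half-log dilutions, topping at clinical Cmax or at 10 microM without a known Cmax.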

[1] = curve of first compound, second compound 0.1 µM
[2] = curve of first compound, second compound 0.316 µM
[3] = curve of first compound, second compound 1 µM
[4] = curve of first compound, second compound 3.16 µM
[5] = curve of first compound, second compound 10 µM
[6] = second compound 0.1 µM, first compound 0.0316 µM
[7] = second compound 0.1 µM, first compound 0.1 µM
[8] = second compound 0.316 µM, first compound 0.0316 µM
[9] = second compound 0.316 µM, first compound 0.1 µM
[10] = second compound 1 µM, first compound 0.0316 µM
[11] = second compound 1 µM, first compound 0.1 µM
[12] = second compound 3.16 µM, first compound 0.0316 µM
[13] = second compound 3.16 µM, first compound 0.1 µM
[14] = second compound 10 µM, first compound 0.0316 µM
[15] = second compound 10 µM, first compound 0.1 µM

CN(C)C/C=C/C(=O)Nc1cc2c(Nc3ccc(F)c(Cl)c3)ncnc2cc1O[C@H]1CCOC1 + COc1cc2nc(C)nc(NC(C)c3cc(N)cc(C(F)(F)F)c3)c2cc1OC1CCOC1
> 0.1 µM: IC50 [1] | IC50 [2] | IC50 [3] | IC50 [4] | IC50 [5]
inactive: viability, T/C (second compound 0.1 µM, first compound 0.000316 µM) 105% | viability, T/C (second compound 0.1 µM, first compound 0.001 µM) 109% | viability, T/C (second compound 0.1 µM, first compound 0.00316 µM) 105% | viability, T/C (second compound 0.1 µM, first compound 0.01 µM) 107% | viability, T/C [6] 105% | viability, T/C [7] 97% | viability, T/C (second compound 0.316 µM, first compound 0.000316 µM) 115% | viability, T/C (second compound 0.316 µM, first compound 0.001 µM) 107% | viability, T/C (second compound 0.316 µM, first compound 0.00316 µM) 112% | viability, T/C (second compound 0.316 µM, first compound 0.01 µM) 96.7% | viability, T/C [8] 100% | viability, T/C [9] 97.7% | viability, T/C (second compound 1 µM, first compound 0.000316 µM) 107% | viability, T/C (second compound 1 µM, first compound 0.001 µM) 102% | viability, T/C (second compound 1 µM, first compound 0.00316 µM) 114% | viability, T/C (second compound 1 µM, first compound 0.01 µM) 106% | viability, T/C [10] 101% | viability, T/C [11] 111% | viability, T/C (second compound 3.16 µM, first compound 0.000316 µM) 72.3% | viability, T/C (second compound 3.16 µM, first compound 0.001 µM) 64.1% | viability, T/C (second compound 3.16 µM, first compound 0.00316 µM) 70% | viability, T/C (second compound 3.16 µM, first compound 0.01 µM) 64.2% | viability, T/C [12] 59.8% | viability, T/C [13] 64.3% | viability, T/C (second compound 10 µM, first compound 0.000316 µM) 73.7% | viability, T/C (second compound 10 µM, first compound 0.001 µM) 51.6% | viability, T/C (second compound 10 µM, first compound 0.00316 µM) 49.6% | viability, T/C (second compound 10 µM, first compound 0.01 µM) 62.7% | viability, T/C [14] 59.9% | viability, T/C [15] 70.8%

CC(C)NCC(C(=O)N1CCN(c2ncnc3c2C(C)CC3O)CC1)c1ccc(Cl)cc1 (configuration not stated)
1.49 µM [middle of 5 runs]: IC50 (curve of compound)
inactive: viability, T/C (compound 0.0316 µM) 101% [middle of 5 runs] | viability, T/C (compound 0.1 µM) 104% [middle of 5 runs] | viability, T/C (compound 0.316 µM) 80.4% [middle of 5 runs] | viability, T/C (compound 1 µM) 62.8% [middle of 5 runs] | viability, T/C (compound 3.16 µM) 27.9% [middle of 5 runs] | viability, T/C (compound 10 µM) 13.2% [middle of 5 runs]

Cn1nccc1Nc1nccc(-c2cc3c(s2)C(C)(C)N(CCN2CCOCC2)C3=O)n1 + COc1cc2nc(C)nc(NC(C)c3cc(N)cc(C(F)(F)F)c3)c2cc1OC1CCOC1
0.801 µM: IC50 [2]
0.189 µM: IC50 [5]
inactive: viability, T/C [6] 107% | viability, T/C [7] 103% | viability, T/C (second compound 0.1 µM, first compound 0.316 µM) 76.2% | viability, T/C (second compound 0.1 µM, first compound 1 µM) 44.8% | viability, T/C (second compound 0.1 µM, first compound 3.16 µM) 25.2% | viability, T/C (second compound 0.1 µM, first compound 10 µM) 25.8% | viability, T/C [8] 106% | viability, T/C [9] 98.6% | viability, T/C (second compound 0.316 µM, first compound 0.316 µM) 77.9% | viability, T/C (second compound 0.316 µM, first compound 1 µM) 45% | viability, T/C (second compound 0.316 µM, first compound 3.16 µM) 20.6% | viability, T/C (second compound 0.316 µM, first compound 10 µM) 22.8% | viability, T/C [10] 101% | viability, T/C [11] 88.3% | viability, T/C (second compound 1 µM, first compound 0.316 µM) 67.9% | viability, T/C (second compound 1 µM, first compound 1 µM) 48% | viability, T/C (second compound 1 µM, first compound 3.16 µM) 22.1% | viability, T/C (second compound 1 µM, first compound 10 µM) 20.9% | viability, T/C [12] 93.8% | viability, T/C [13] 78.7% | viability, T/C (second compound 3.16 µM, first compound 0.316 µM) 54.2% | viability, T/C (second compound 3.16 µM, first compound 1 µM) 33.1% | viability, T/C (second compound 3.16 µM, first compound 3.16 µM) 22% | viability, T/C (second compound 3.16 µM, first compound 10 µM) 22.3% | viability, T/C [14] 66.7% | viability, T/C [15] 60.4% | viability, T/C (second compound 10 µM, first compound 0.316 µM) 41.6% | viability, T/C (second compound 10 µM, first compound 1 µM) 28.2% | viability, T/C (second compound 10 µM, first compound 3.16 µM) 25.1% | viability, T/C (second compound 10 µM, first compound 10 µM) 24%
0.389 µM: IC50 [4]
0.795 µM: IC50 [1]
0.769 µM: IC50 [3]

Source: PubChem BioAssay AID1963858 (Molecular Pharmacology Branch, DTP, NCI, 2024)
